Data reported in PMC12775434, “Ultra-large virtual screening unveils potent agonists of the neuromodulatory orphan receptor GPR139” (Nature Communications, 2025).
Values joined by “and” are separate entries in the source; they are usually repeats but may differ in a detail not shown here. Equal values may be shown once.

Tests used:
Format in all cases: cell-based
[1] = biological target: T1, human muscarinic acetylcholine M1 receptor (M1R) (Homo sapiens, UniProt P11229); experiment: Ca2+ mobilization counter-screen in M1R-CHOk1 cells; conditions: individual replicates (Supplementary Figure 5)
T1 sequence (P11229 1-460): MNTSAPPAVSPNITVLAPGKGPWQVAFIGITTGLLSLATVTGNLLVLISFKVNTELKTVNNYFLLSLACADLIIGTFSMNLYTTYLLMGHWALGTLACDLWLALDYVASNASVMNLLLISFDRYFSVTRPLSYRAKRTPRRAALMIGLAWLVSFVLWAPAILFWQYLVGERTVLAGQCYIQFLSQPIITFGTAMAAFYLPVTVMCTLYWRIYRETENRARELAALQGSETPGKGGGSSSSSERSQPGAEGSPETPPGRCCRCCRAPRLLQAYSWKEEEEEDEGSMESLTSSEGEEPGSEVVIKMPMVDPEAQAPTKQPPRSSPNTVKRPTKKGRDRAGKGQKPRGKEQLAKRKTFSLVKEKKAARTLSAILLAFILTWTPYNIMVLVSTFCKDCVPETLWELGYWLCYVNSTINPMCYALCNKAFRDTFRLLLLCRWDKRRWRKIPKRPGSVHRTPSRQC
Summary of the method: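 M1R-CHOk1 cells seeded 20–24 h, loaded with 2 µM Fluo-4 AM (2.5 mM probenecid, 0.01% Pluronic F-68) for 1 h at 37 °C in HBSS/20 mM HEPES pH 7.4. Compounds added after baseline (≤0.3% DMSO); calcium fluorescence read at 37 °C, ex 485/em 525 nm.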

GPR139 [2] = biological target: T2, GPR139 (Homo sapiens, UniProt Q6DWJ6); experiment: Ca2+ mobilization assay, agonist mode, stable GPR139-CHOk1 cell line; conditions: for EC50 / Emax: Supplementary Table 2, mean ± SEM; for EC50: read-out: pEC50 Ca2+ (converted); for Emax: normalized to Lundbeck Cmp 1a, read-out: Emax (%) Ca2+
T2 sequence (Q6DWJ6 1-353): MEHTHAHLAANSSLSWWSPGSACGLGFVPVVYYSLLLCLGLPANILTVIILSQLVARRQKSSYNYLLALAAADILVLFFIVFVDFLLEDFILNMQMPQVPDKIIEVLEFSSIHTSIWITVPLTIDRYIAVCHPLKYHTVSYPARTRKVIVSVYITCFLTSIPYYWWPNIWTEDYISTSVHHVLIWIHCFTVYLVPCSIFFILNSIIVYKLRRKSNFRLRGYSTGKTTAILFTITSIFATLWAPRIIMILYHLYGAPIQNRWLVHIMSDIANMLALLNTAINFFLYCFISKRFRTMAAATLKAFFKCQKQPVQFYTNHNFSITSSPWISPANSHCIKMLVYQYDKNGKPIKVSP
Summary of the method: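 Agonist activity of compounds is assessed in stably transfected CHO-K1 cells using the calcium dye Fluo-4 at 37 °C in HEPES-buffered HBSS (pH 7.4). Efficacy is expressed relative to the reference agonist Lundbeck Cmp 1a, set as 100%.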

GPR139 [3] = biological target: T2, GPR139; experiment: Ca2+ mobilization assay, antagonist mode (EC80 800 nM Lundbeck Cmp 1a after 20 min preincubation), GPR139-CHOk1; conditions: individual replicates (Supplementary Figure 4)
Summary of the method: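 Fluo-4-loaded GPR139-CHOk1 cells in HEPES-buffered HBSS (pH 7.4, 2.5 mM probenecid) given test compounds at 10 µM, then after 20 min challenged with 800 nM Lundbeck Cmp 1a (EC80). Calcium fluorescence read at 37 °C, 485/525 nm.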

[4] = Agonist mode, individual replicates (Supplementary Figure 4)
[5] = log [Compound] M = -4.5, individual replicate columns
[6] = log [Compound] M = -5.0, individual replicate columns
[7] = log [Compound] M = -5.5, individual replicate columns
[8] = log [Compound] M = -6.0, individual replicate columns
[9] = log [Compound] M = -6.5, individual replicate columns
[10] = log [Compound] M = -7.0, individual replicate columns
[11] = log [Compound] M = -7.5, individual replicate columns
[12] = log [Compound] M = -8.0, individual replicate columns
[13] = log [Compound] M = -8.5, individual replicate columns
[14] = log [Compound] M = -9.0, individual replicate columns

| EC50 (GPR139 [2]) | Emax (GPR139 [2]) | SMILES | Ca2+ signal (% of Carbachol) [1] | Ca2+ signal (% of Cmp 1a) (GPR139 [2]; [4]) | Ca2+ signal (% of Cmp 1a) (GPR139 [2]; [5]) | Ca2+ signal (% of Cmp 1a) (GPR139 [2]; [6]) | Ca2+ signal (% of Cmp 1a) (GPR139 [2]; [7]) | Ca2+ signal (% of Cmp 1a) (GPR139 [2]; [8]) | Ca2+ signal (% of Cmp 1a) (GPR139 [2]; [9]) | Ca2+ signal (% of Cmp 1a) (GPR139 [2]; [10]) | Ca2+ signal (% of Cmp 1a) (GPR139 [2]; [11]) | Ca2+ signal (% of Cmp 1a) (GPR139 [2]; [12]) | Ca2+ signal (% of Cmp 1a) (GPR139 [2]; [13]) | Ca2+ signal (% of Cmp 1a) (GPR139 [2]; [14]) | Ca2+ signal (% of Cmp 1a) (GPR139 [3]) |
| --- | --- | --- | --- | --- | --- | --- | --- | --- | --- | --- | --- | --- | --- | --- | --- |
| 2 µM | 97 ± 3% | Cc1ncc(-c2nc(CC(=O)NC(C)c3ccccc3)no2)o1 (stereo not drawn) [Compound 1.25, CC(C1=CC=CC=C1)NC(CC2=NOC(C3=CN=C(O3)C)=N2)=O] | 5.35 % of Carbachol and 0.226 % of Carbachol and -1.63 % of Carbachol | 86 % of Cmp 1a and 76 % of Cmp 1a and 90 % of Cmp 1a | 107 % of Cmp 1a and 102 % of Cmp 1a and 85 % of Cmp 1a and 96 % of Cmp 1a and 104 % of Cmp 1a | 92 % of Cmp 1a (2×) and 95 % of Cmp 1a and 77 % of Cmp 1a and 93 % of Cmp 1a | 62 % of Cmp 1a and 74 % of Cmp 1a and 52 % of Cmp 1a and 93 % of Cmp 1a and 64 % of Cmp 1a | 43 % of Cmp 1a and 38 % of Cmp 1a and 31 % of Cmp 1a and 47 % of Cmp 1a and 36 % of Cmp 1a | 17 % of Cmp 1a and 13 % of Cmp 1a and 4.22 % of Cmp 1a and 19 % of Cmp 1a and 9 % of Cmp 1a | 7 % of Cmp 1a and 2.6 % of Cmp 1a and -3 % of Cmp 1a and 12 % of Cmp 1a and 3.24 % of Cmp 1a | 10 % of Cmp 1a and 2.43 % of Cmp 1a and 2 % of Cmp 1a and 1.64 % of Cmp 1a and 4 % of Cmp 1a | 3 % of Cmp 1a and 6 % of Cmp 1a (2×) and 5 % of Cmp 1a and 4.25 % of Cmp 1a | -0.76 % of Cmp 1a and -1.77 % of Cmp 1a and 0.877 % of Cmp 1a and 5.4 % of Cmp 1a and 0.153 % of Cmp 1a | 0.813 % of Cmp 1a and 0.273 % of Cmp 1a and -1 % of Cmp 1a and 1 % of Cmp 1a and 2.54 % of Cmp 1a | 3 % of Cmp 1a and 15 % of Cmp 1a and 5.33 % of Cmp 1a |
| 2 µM | 94 ± 9% | COc1ccc(-c2nc(CC(=O)NC(C)c3ccccc3)no2)cn1 (stereo not drawn) [Compound 1.26, COC1=NC=C(C2=NC(CC(NC(C3=CC=CC=C3)C)=O)=NO2)C=C1] | -15 % of Carbachol and -8 % of Carbachol and 11 % of Carbachol | 85 % of Cmp 1a and 87 % of Cmp 1a and 69 % of Cmp 1a | 87 % of Cmp 1a and 80 % of Cmp 1a and 98 % of Cmp 1a | 81 % of Cmp 1a and 61 % of Cmp 1a and 119 % of Cmp 1a | 56 % of Cmp 1a and 44 % of Cmp 1a and 97 % of Cmp 1a | 34 % of Cmp 1a and 6.33 % of Cmp 1a and 46 % of Cmp 1a | 12 % of Cmp 1a and -9 % of Cmp 1a and 7 % of Cmp 1a | 8 % of Cmp 1a and 3 % of Cmp 1a and 10 % of Cmp 1a | 2.67 % of Cmp 1a and 0 % of Cmp 1a and -4.67 % of Cmp 1a | -9 % of Cmp 1a (2×) and 6.33 % of Cmp 1a | 1 % of Cmp 1a and -7 % of Cmp 1a and 3.33 % of Cmp 1a | -3.33 % of Cmp 1a and -8 % of Cmp 1a and 15 % of Cmp 1a | 29 % of Cmp 1a and 2 % of Cmp 1a and 52 % of Cmp 1a |
| 2 µM | 96 ± 6% | CCn1nc(-c2nc(CC(=O)NC(C)c3ccccc3)no2)cc1C (stereo not drawn) [Compound 1.27, CCN1N=C(C2=NC(CC(NC(C3=CC=CC=C3)C)=O)=NO2)C=C1C] | -1.81 % of Carbachol and 1.46 % of Carbachol and 5 % of Carbachol | 81 % of Cmp 1a and 93 % of Cmp 1a and 60 % of Cmp 1a | 101 % of Cmp 1a and 107 % of Cmp 1a and 86 % of Cmp 1a | 91 % of Cmp 1a and 71 % of Cmp 1a and 89 % of Cmp 1a | 56 % of Cmp 1a and 61 % of Cmp 1a and 76 % of Cmp 1a | 25 % of Cmp 1a and 33 % of Cmp 1a and 48 % of Cmp 1a | 9 % of Cmp 1a and 7 % of Cmp 1a and 10 % of Cmp 1a | 4.22 % of Cmp 1a and -3 % of Cmp 1a and 6.42 % of Cmp 1a | 8 % of Cmp 1a and 2.12 % of Cmp 1a and -0.804 % of Cmp 1a | 0.271 % of Cmp 1a and 9 % of Cmp 1a and -0.437 % of Cmp 1a | -3 % of Cmp 1a and 2.65 % of Cmp 1a and 6.66 % of Cmp 1a | 4 % of Cmp 1a and -0.687 % of Cmp 1a and 5 % of Cmp 1a | 24 % of Cmp 1a and -1.33 % of Cmp 1a and 22 % of Cmp 1a |
